| melting point [°C] | SMILES |
| --- | --- |
| 133 to 134 | CCCN1CCN(c2ccc(S(=O)(=O)Oc3cc(OC)c(OC)c(OC)c3)cc2)C1=O [Compound 101, 3,4,5-trimethoxyphenyl 4-(2-oxo-3-propylimidazolidin-1-yl)benzenesulfonate] |
| 104 to 105 | CCCN1CCN(c2ccc(S(=O)(=O)Oc3cc(OC)cc(OC)c3)cc2)C1=O [Compound 104, 3,5-dimethoxyphenyl 4-(2-oxo-3-propylimidazolidin-1-yl)benzenesulfonate] |
